# Laboratory results as given in PubChem BioAssay AID256 (DTP/NCI, 2004).
# Values joined by “and” are separate entries in the source; they are usually repeats but may differ in a detail not shown here. Equal entries are not always repeated. Inconclusive results and toxic doses are left out.
# Tested on: CD2F1 mice, L1210 leukemia ip, survival T/C
# Assay: NCI In Vivo Anticancer Drug Screen. Data for tumor model L1210 Leukemia (intraperitoneal) in CD2F1 (CDF1) mice
# Conditions: endpoint: mean survival time, higher = longer survival
# Method in brief: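 Implant tumor; dose compound or vehicle; measure endpoint in both groups; report treated divided by control.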
# [1] = dose: 100.0 mg/kg/injection, schedule: Q01DX009 (ip), vehicle: saline with Tween-80
# [2] = dose: 200.0 mg/kg/injection, schedule: Q01DX009 (ip), vehicle: saline with Tween-80
# [3] = dose: 100.0 mg/kg/injection, schedule: Q04DX003 (ip), vehicle: saline with Tween-80
# [4] = dose: 200.0 mg/kg/injection, schedule: Q04DX003 (ip), vehicle: saline with Tween-80
# [5] = dose: 100.0 mg/kg/injection, schedule: Q04DX002 (ip), vehicle: saline with Tween-80
# [6] = dose: 50.0 mg/kg/injection, schedule: Q01DX009 (ip), vehicle: saline with Tween-80
compound,measurement,setting,value
Fc1ccc2c(c1)CC(CBr)O2 (configuration not stated),T/C,[1],100 % of control
same,T/C,[2],105 % of control
same,T/C,"dose: 400.0 mg/kg/injection, schedule: Q01DX009 (ip), vehicle: saline with Tween-80",96 % of control
CCOC(=O)c1cc(-c2ccc3ccccc3n2)c(O)c2cc3ccccc3nc12,T/C,[3],93 % of control
same,T/C,[4],87 % of control
same,T/C,"dose: 400.0 mg/kg/injection, schedule: Q04DX003 (ip), vehicle: saline with Tween-80",90 % of control
COc1ccc(OCc2ccc(OC)c(OC)c2)cc1,T/C,[5],91 % of control
same,T/C,"dose: 200.0 mg/kg/injection, schedule: Q04DX002 (ip), vehicle: saline with Tween-80",87 % of control
same,T/C,"dose: 400.0 mg/kg/injection, schedule: Q04DX002 (ip), vehicle: saline with Tween-80",91 % of control
O=[N+]([O-])c1ccc(Sc2ncnc3nc[nH]c23)c([N+](=O)[O-])c1,T/C,"dose: 16.6 mg/kg/injection, schedule: Q01DX005 (ip), vehicle: other",154 % of control
same,T/C,"dose: 25.0 mg/kg/injection, schedule: Q01DX005 (ip), vehicle: other",167 % of control
same,T/C,"dose: 37.5 mg/kg/injection, schedule: Q01DX005 (ip), vehicle: other",162 % of control
same,T/C,"dose: 56.3 mg/kg/injection, schedule: Q01DX005 (ip), vehicle: other",167 % of control
CCOC(=O)c1ccc(Nc2nnc(-c3ccc(OC)cc3OC)s2)cc1,T/C,"dose: 25.0 mg/kg/injection, schedule: Q01DX009 (ip), vehicle: saline with Tween-80",94 % of control
same,T/C,[6],88 % of control
same,T/C,[1],88 % of control and 91 % of control
O=[As](O)(O)Cc1ccccc1,T/C,"dose: 6.25 mg/kg/injection, schedule: Q01DX009 (ip), vehicle: Klucel (hydroxypropylcellulose) (HPC)",100 % of control
same,T/C,"dose: 12.5 mg/kg/injection, schedule: Q01DX009 (ip), vehicle: Klucel (hydroxypropylcellulose) (HPC)",89 % of control
same,T/C,"dose: 25.0 mg/kg/injection, schedule: Q01DX009 (ip), vehicle: Klucel (hydroxypropylcellulose) (HPC)",93 % of control
CC(=O)C(C)(O)C(C)(C)C (configuration not stated),T/C,"dose: 100.0 mg/kg/injection, schedule: Q04DX003 (ip), vehicle: saline",95 % of control
same,T/C,"dose: 200.0 mg/kg/injection, schedule: Q04DX003 (ip), vehicle: saline",93 % of control
same,T/C,"dose: 400.0 mg/kg/injection, schedule: Q04DX003 (ip), vehicle: saline",98 % of control
CCCCOc1ccc(/C=N\NC(=O)CNC(=O)Nc2ccc(F)cc2)cc1,T/C,[6],92 % of control
same,T/C,[1],88 % of control
same,T/C,[2],88 % of control
CCCCOC(=O)CCC(NC(=O)c1ccc(N(C)Cc2cnc3nc(N)nc(N)c3n2)cc1)C(=O)OCCCC (configuration not stated),T/C,"dose: 0.09 mg/kg/injection, schedule: Q01DX009 (ip), vehicle: distilled water + Tween-80",108 % of control
same,T/C,"dose: 0.19 mg/kg/injection, schedule: Q01DX009 (ip), vehicle: distilled water + Tween-80",113 % of control and 91 % of control
same,T/C,"dose: 0.75 mg/kg/injection, schedule: Q01DX009 (ip), vehicle: distilled water + Tween-80",108 % of control
same,T/C,"dose: 1.5 mg/kg/injection, schedule: Q01DX009 (ip), vehicle: distilled water + Tween-80",89 % of control
CC(=O)Nc1ccc([N+](=O)[O-])cc1C,T/C,"dose: 50.0 mg/kg/injection, schedule: Q04DX003 (ip), vehicle: saline with Tween-80",101 % of control
same,T/C,[3],100 % of control
same,T/C,[4],103 % of control
CC(C)CCCN,T/C,"dose: 100.0 mg/kg/injection, schedule: Q01DX001 (ip), vehicle: saline",100 % of control
same,T/C,"dose: 200.0 mg/kg/injection, schedule: Q01DX001 (ip), vehicle: saline",97 % of control
same,T/C,"dose: 400.0 mg/kg/injection, schedule: Q01DX001 (ip), vehicle: saline",97 % of control
CC(=O)Oc1ccc(Nc2c3ccccc3nc3ccccc23)cc1,T/C,"dose: 44.0 mg/kg/injection, schedule: Q01DX001 (ip), vehicle: saline with Tween-80",119 % of control
same,T/C,"dose: 44.0 mg/kg/injection, schedule: Q01DX009 (ip), vehicle: saline with Tween-80",155 % of control
same,T/C,"dose: 66.0 mg/kg/injection, schedule: Q01DX001 (ip), vehicle: saline with Tween-80",109 % of control
same,T/C,"dose: 66.0 mg/kg/injection, schedule: Q01DX009 (ip), vehicle: saline with Tween-80",94 % of control
same,T/C,"dose: 100.0 mg/kg/injection, schedule: Q01DX001 (ip), vehicle: saline with Tween-80",152 % of control
same,T/C,[1],88 % of control
same,T/C,[5],177 % of control
